Columns and labels:
Assay type in all cases: functional, cell membranes, Sprague-Dawley, Bile canalicular membrane vesicle
[1] = target: T1, ATP-binding cassette sub-family C member 2 (Rattus norvegicus, UniProt Q63120); test: TP_TRANSPORTER: inhibition of DNP-SG uptake (DNP-SG: 1 uM, 4MUG: 500 uM) in bile canalicular membrane vesicles from SD rat
[2] = target: T1, ATP-binding cassette sub-family C member 2; test: TP_TRANSPORTER: inhibition of DNP-SG uptake in bile canalicular membrane vesicles from SD rat
[3] = substrate: CNc1nc2c(Cc3cccnc3)c(C)c(O[C@@H]3O[C@H](C(=O)O)[C@@H](O)[C@H](O)[C@H]3O)c(C)c2s1; test: (§1) TP_TRANSPORTER: uptake in bile canalicular membrane vesicles from SD rat
[4] = substrate: N[C@@H](CCC(=O)N[C@H](CSc1ccc([N+](=O)[O-])cc1[N+](=O)[O-])C(=O)NCC(=O)O)C(=O)O; test: as §1

## O=C(O)[C@H]1O[C@@H](OCc2cc(=O)oc3cc(O)ccc23)[C@H](O)[C@@H](O)[C@@H]1O
[1]
  Activity: inhibitor [+]

## CNc1nc2c(Cc3cccnc3)c(C)c(O[C@@H]3O[C@H](C(=O)O)[C@@H](O)[C@H](O)[C@H]3O)c(C)c2s1 [E3040 GLUCURONIDE]
[2]
  Ki: 3.84 µM

B1: ATP-binding cassette sub-family C member 2 (Rattus norvegicus) (protein)
chain: MDKFCNSTFWDLSLLESPEADLPLCFEQTVLVWIPLGFLWLLAPWQLYSVYRSRTKRSSITKFYLAKQVFVVFLLILAAIDLSLALTEDTGQATVPPVRYTNPILYLCTWLLVLAVQHSRQWCVRKNSWFLSLFWILSVLCGVFQFQTLIRALLKDSKSNMAYSYLFFVSYGFQIVLLILTAFSGPSDSTQTPSVTASFLSSITFSWYDRTVLKGYKHPLTLEDVWDIDEGFKTRSVTSKFEAAMTKDLQKARQAFQRRLQKSQRKPEATLHGLNKKQSQSQDVLVLEEAKKKSEKTTKDYPKSWLIKSLFKTFHVVILKSFILKLIHDLLVFLNPQLLKLLIGFVKSSNSYVWFGYICAILMFAVTLIQSFCLQSYFQHCFVLGMCVRTTVMSSIYKKALTLSNLARKQYTIGETVNLMSVDSQKLMDATNYMQLVWSSVIQITLSIFFLWRELGPSILAGVGVMVLLIPVNGVLATKIRNIQVQNMKNKDKRLKIMNEILSGIKILKYFAWEPSFQEQVQGIRKKELKNLLRFGQLQSLLIFILQITPILVSVVTFSVYVLVDSANVLNAEKAFTSITLFNILRFPLSMLPMVTSSILQASVSVDRLERYLGGDDLDTSAIRRVSNFDKAVKFSEASFTWDPDLEATIQDVNLDIKPGQLVAVVGTVGSGKSSLVSAMLGEMENVHGHITIQGSTAYVPQQSWIQNGTIKDNILFGSEYNEKKYQQVLKACALLPDLEILPGGDMAEIGEKGINLSGGQKQRVSLARAAYQDADIYILDDPLSAVDAHVGKHIFNKVVGPNGLLAGKTRIFVTHGIHFLPQVDEIVVLGKGTILEKGSYRDLLDKKGVFARNWKTFMKHSGPEGEATVNNDSEAEDDDDGLIPTMEEIPEDAASLAMRRENSLRRTLSRSSRSSSRRGKSLKNSLKIKNVNVLKEKEKEVEGQKLIKKEFVETGKVKFSIYLKYLQAVGWWSILFIILFYGLNNVAFIGSNLWLSAWTSDSDNLNGTNNSSSHRDMRIGVFGALGLAQGICLLISTLWSIYACRNASKALHGQLLTNILRAPMRFFDTTPTGRIVNRFSGDISTVDDLLPQTLRSWMMCFFGIAGTLVMICMATPVFAIIIIPLSILYISVQVFYVATSRQLRRLDSVTKSPIYSHFSETVTGLPIIRAFEHQQRFLAWNEKQIDINQKCVFSWITSNRWLAIRLELVGNLVVFCSALLLVIYRKTLTGDVVGFVLSNALNITQTLNWLVRMTSEAETNIVAVERISEYINVENEAPWVTDKRPPADWPRHGEIQFNNYQVRYRPELDLVLKGITCNIKSGEKVGVVGRTGAGKSSLTNCLFRILESAGGQIIIDGIDVASIGLHDLRERLTIIPQDPILFSGSLRMNLDPFNKYSDEEVWRALELAHLRSFVSGLQLGLLSEVTEGGDNLSIGQRQLLCLGRAVLRKSKILVLDEATAAVDLETDSLIQTTIRKEFSQCTVITIAHRLHTIMDSDKIMVLDNGKIVEYGSPEELLSNRGSFYLMAKEAGIENVNHTEL
[3]
  Km: 5.7 µM
[4]
  Km: 17.6 µM

Source: ChEMBL document CHEMBL2073965, “Kinetic analysis of the primary active transport of conjugated metabolites across the bile canalicular membrane: comparative study of S-(2,4-dinitrophenyl)-glutathione and 6-hydroxy-5,7-dimethyl-2-methylamino-4-(3-pyridylmethyl)benzothiazole glucuronide” (J Pharmacol Exp Ther, 1997)
